Reference: publication PMC9030166, “Natural Phaeosphaeride A Derivatives Overcome Drug Resistance of Tumor Cells and Modulate Signaling Pathways” (Pharmaceuticals, 2022)

Legend:
[1] = system: p38 (pThr180/pTyr182); assay: MILLIPLEX MAP 9-Plex, p38 active form in A431 lysates; type: cell-based, human; conditions: 10 μM; for p38 (pThr180/pTyr182) fluorescence intensity: A431 cell lysates, M ± mx, control 567.7 ± 266.6; for p38 (pThr180/pTyr182) fluorescence intensity / increase of fluorescence intensity of the active form p38: 1 h; for increase of fluorescence intensity of the active form p38 / activation of signaling pathway p38 (pThr180/pTyr182), in words: A431 cells; for increase of fluorescence intensity of the active form p38: versus control
Description: We used the MILLIPLEX MAP Multi-Pathway Magnetic Bead 9-Plex-Cell Signaling Multiplex Assay, which allows the simultaneous detection of nine phosphorylated proteins that are markers of the main intracellular signaling pathways (phosphorylation site is indicated in parentheses), a universal transcription factor that controls the expression of immune response genes; apoptosis and cell cycle NFκB (pS536); cAMP-dependent transcription factor (CREB (pS133); mitogen-activated kinase p38 (pT180/pY182); stress-activated protein kinase JNK (pT183/pY185); ribosomal […]; transcription factors STAT3 (pS727) and STAT5A/B (pY694/699); protein kinase B (Akt) (pS473); and kinase regulated by extracellular signals ERK1/2 (pT185/pY187).
The effect of various concentrations of PPA derivatives on the cell culture was studied using xCelligence RTCA equipment (AceaBioscience, San Diego, CA, USA). The concentration closest to the IC50 (10 μM) was chosen as the experimental concentration. The selected concentration of phaeosphaeride A derivatives allows for the assessment of the early effect of compounds on cells and compares their effectiveness. In this experiment, the signaling pathways Akt (pSer473), p70S6K (pThr412), NFkB (p65-pSer536), and CREB (pSer133) were not activated (Table 8). The stress-activated signaling pathways ERK/MAP kinase 1/2 (pThr185/pTyr187), JNK (pThr183/pTyr185), and p38 (pThr180/pTyr182) were activated for these compounds.
We used a MILLIPLEX MAP Multi-Pathway Magnetic Bead 9-Plex-Cell Signaling Multiplex Assay kit (Merck/Millipore), according to the manufacturer’s protocol. A431 cells were cultured in DMEM with 10% FBS in 24-well plates. Compounds were added to the subconfluent cells at a concentration of 10 μM in DMEM medium for 1 h. Each compound was added in 5 experimental repeats. Cell lysates were prepared with lysis buffer (Millipore) with protease inhibitors (Complete, Roche); the protein concentration in the lysates was determined by the Lowry method. In samples equalized in protein concentration, the active forms of kinase cascades were determined using a Bio-Plex 200 fluorescent analyzer (Bio-Rad).

[2] = system: NCI-H929; assay: MTT cytotoxicity, NCI-H929 multiple myeloma cells; type: cell-based; conditions: Homo sapiens, suspension culture, 48 h
Description: Cell cultures used in the work: adhesive cultures HBL-100 cells (cells of a normal mammary gland epithelium, immortalized by the SV40 virus and acquired tumorigenicity); MCF-7 breast cancer cells; PC-3 prostate adenocarcinoma cells; HCT-116 colorectal cancer cells; non-small cell lung cancer cells A549; human embryonic kidney cells HEK293; suspension cultures (NCI-H929 and RPMI8226 multiple myeloma cells), K562 chronic myeloid leukemia cells; THP-1 acute monocytic leukemia cells; and Jurkat acute T-cell leukemia cells. We also used several primary cultures of soft tissue sarcomas at 3–4passeges, kindly provided by T.I. Fetisov (The Ethics Committee of N.N. Blokhin NMRCO, protocol code 18-28-09095 and date of approval 28 September 2018).
Modifications of cell lines: K562/i-S9 is a clone obtained after transfection of K562 cells with the ABCB1 (MDR1) gene-encoding P-glycoprotein [36]. Cells HBL-100/Dox and K562/i-S9_Dox are cells obtained by long-term selection with increasing concentrations of doxorubicin (Sigma-Aldrich, St. Louis, MO, USA) from HBL-100 and K562/i-S9 cells, respectively. MCF-7, A594 cells, and primary cultures of soft tissue sarcomas were cultured in DMEM medium (PanEko, Russia), PC-3 and HCT-116 cells and all suspension cultures in RPMI1640 medium (PanEko, Russia) supplemented with 10% fetal bovine serum (GE Healthcare LifeSciences, USA), and gentamicin at a concentration of 40 μg/mL at 37 °C and 5% CO2.
Cells MCF-7, PC-3, A549, and HCT-116, and primary cultures of STSwere seeded in 96-well plates, 6 × 10^3 cells per well in 90 μL of culture medium. Suspension cultures were seeded at a concentration of 25 × 10^3 cells per well in 135 μL of medium. The test substances were dissolved in DMSO (Applichem, Council Bluffs, IA, USA) until a concentration of 1 × 10^−^2 M was obtained; for the subsequent dilution of the substances, a serum-free culture medium was used. The next day, for adhesive cultures, and on the same day, for suspension cultures, substances were added to the plates in a volume of 10 μL (adhesive cultures) and 15 μL (suspension cultures) per well at various concentrations; each concentration was added in 3–4 repetitions. The cells were cultured in the presence of substances for 48 h. Then, MTT reagent (PanEko, Moscow, Russia) was added to the wells at a concentration of 5 mg/mL in a volume of 20 μL per well. After 1.5–2 h, the medium with the reagent was removed, and the precipitate of the crystals of formazan was dissolved in 60 μL of DMSO. The optical density was determined using a Multiskan FC spectrophotometer (Thermo Scientific, Waltham, MA, USA) at a wavelength of 540 nm.
Based on the results of the experiments, a schedule was plotted of the dependence of the percentage of surviving cells (from control) on the concentration of the compound, and the sought concentration IC50 was calculated. The experiments were carried out in 3–4 times.

SMILES | p38 (pThr180/pTyr182) fluorescence intensity [1] | increase of fluorescence intensity of the active form p38 [1] | IC50 [2] [µM] | activation of signaling pathway p38 (pThr180/pTyr182), in words [1]
C=C1C2=C(C(=O)N1OC)[C@@H](N(CC)CCO)[C@@](C)(O)[C@H](CCCCC)O2 [Compound 9, (2S,3R,4R)-4-[ethyl(2-hydroxyethyl)amino]-3-hydroxy-6-methoxy-3-methyl-7-methylene-2-pentyl-3,4,6,7-tetrahydropyrano[2,3-c]pyrrol-5(2H)-one] | 657.1 ± 287.5 rel. units | 1.5–3 times | 0.6 ± 0.2 | –
C=C1C2=C(C(=O)N1OC)[C@@H](N(C)C)[C@@](C)(O)[C@H](CCCCC)O2 [Compound 2, (2S,3R,4R)-4-(dimethylamino)-3-hydroxy-6-methoxy-3-methyl-7-methylene-2-pentyl-3,4,6,7-tetrahydropyrano[2,3-c]pyrrol-5(2H)-one] | 2795.4 ± 572.0 *↑ rel. units | 1.5–3 times | 0.5 ± 0.1 | maximum degree of activation
C=C1C2=C(C(=O)N1OC)[C@@H](N(CCCC)CCCC)[C@@](C)(O)[C@H](CCCCC)O2 [Compound 5, (2S,3R,4R)-4-(dibutylamino)-3-hydroxy-6-methoxy-3-methyl-7-methylene-2-pentyl-3,4,6,7-tetrahydropyrano[2,3-c]pyrrol-5(2H)-one] | 1245.9 ± 342.8 rel. units | – | 2.9 ± 0.3 | only slightly activated
CCCCC[C@@H]1OC2=C(C(=O)N(OC)/C2=C\n2cnnc2)C(n2cnnc2)[C@@]1(C)O (stereo partly shown) [Compound 10] | 1783.6 ± 181.9 *↑ rel. units | – | 5.6 ± 0.7 | only slightly activated
C=C1C2=C(C(=O)N1OC)[C@@H](N1CCCC1)[C@@](C)(O)[C@H](CCCCC)O2 [Compound 1] | 2349.9 ± 755.5 rel. units | 1.5–3 times | 0.7 ± 0.2 | –
